Usually IC50 stands for the concentration needed to halve the response being measured.

The source of these data is US9402846B2, “Combination of inhibitor of B-Raf and inhibitor of AKT in the treatment of cancer” (Novartis AG, priority 2009, dated 2016).

Holding throughout (format): cell-based
Test [1] has as its system 16R5-2. Description: Cell growth inhibition assay (Cell Titer Glo, 3 days). Particulars: Homo sapiens; 16R5-2, melanoma, Compound A resistant clone; BRAF_V600E, KRAS WT; mean ± std; read-out: IC50 Single Agent. The protocol: (§1) Human colon tumor lines, Colo205, DLD1, HCC2998, HCT15, HCT8, HT29, KM-12, LS1034, LS174T, NCI-H508, RKO, SW1417, SW1463, SW480, SW837 and T84, and human melanoma line A375 were from ATCC. A375PF11 was derived from A375, 12R5-1, 12R5-3, 12R8-1, 12R8-3, 16R5-2, 16R6-3 and 16R6-4 are single cell clones derived from mixed populations of A375PF11 cells that were selected to grow in Compound A to concentrations of 1200 and 1600 nM. All lines were cultured in RPMI 1640 medium containing 10% fetal bovine serum (FBS).
(§2) All cells were cultured for a minimum of 72 hours prior to cell plating. Cells were assayed in a 96-well tissue culture plate (NUNC 136102) of RPMI medium containing 10% FBS for all cells at 1,000 cells per well. Approximately 24 hours after plating, cells were exposed to ten, three-fold serial dilutions of compound or the combination of the two agents at a constant molar to molar ratio of 1:10 Compound A to Compound B in RPMI media containing 10% FBS. Cells were incubated in the presence of compounds for 3 days. ATP levels were determined by adding Cell Titer Glo® (Promega) according to the manufacturer's protocol. Briefly, Cell Titer Glo® was added each plate, incubated for 30 minutes then luminescent signal was read on the SpectraMax L plate reader with a 0.5 sec integration time.
(§3) Inhibition of cell growth was estimated after treatment with compound or combination of compounds for three days and comparing the signal to cells treated with vehicle (DMSO). Cell growth was calculated relative to vehicle (DMSO) treated control wells.
(§4) Combination effects on potency were evaluated using Combination Index (CI) which was calculated with the back-interpolated IC50 values and the mutually non-exclusive equation derived by Chou and Talalay (1): CI=Da/IC50(a)+Db/IC50(b)+(Da×Db)/(IC50(a)×IC50(b))
(§5) In general, a CI value <0.9, between 0.9 and 1.1, or >1.1 indicates synergy, additivity and antagonism, respectively. In general, the smaller the CI number, the greater is the strength of synergy.
(§6) The combination effects on the response scale were quantified by Excess Over Highest Single Agent (EOHSA) based on the concept of nonlinear blending as described in detail by Peterson and Novick (2007) and Peterson (2010) [(2;3) [Peterson and Novick, 2007; Peterson, 2010]. EOHSA values are defined as increases in improvement (here, in ‘percentage points’ (ppts) difference) produced by the combination over the best single agent at its component dose level for the combination. For single agent and combination treatments, cells were exposed to compounds at a fixed-dose-ratio, and dose response curves were fit to the experimental data and analyzed using regression models. At specified total dose levels of IC50 along the dose response curve, the dose combination (corresponding to IC50) was determined for making EOHSA statistical inferences.

Test [2] deals with KM-12. The test is described as above. Particulars: Homo sapiens, KM12; KM-12, colon; BRAF WT, KRAS WT, PIK3CA WT; mean ± std; read-out: IC50 Single Agent. Here is the method: as §1, §2, §3, §4, §5, §6
For test [3], the system named is SW1417. The test is described as above. As to conditions: Homo sapiens; SW1417, colon; BRAF V600E, KRAS WT, PIK3CA WT; mean ± std; read-out: IC50 Single Agent. Here is the method: as §1, §2, §3, §4, §5, §6
Test [4] has as its system HT29. The description is as above. As to conditions: Homo sapiens, HT-29; HT29, colon; BRAF V600E, KRAS WT, PIK3CA P449T; mean ± std; read-out: IC50 Single Agent. The protocol:
as §1, §2, §3, §4, §5, §6

The test system of test [5] is 12R5-1. Described as above. Particulars: Homo sapiens; 12R5-1, melanoma, Compound A resistant clone; BRAF_V600E, KRAS WT; mean ± std; read-out: IC50 Single Agent. The protocol:
as §1, §2, §3, §4, §5, §6

The subject of test [6] is 12R8-1. The description is as above. Particulars: Homo sapiens; 12R8-1, melanoma, Compound A resistant clone; BRAF_V600E, KRAS WT; mean ± std; read-out: IC50 Single Agent. Here is the method:
as §1, §2, §3, §4, §5, §6

Test [7] concerns seven Compound A resistant clones derived from the A375PF11 melanoma cell line. In words: Cell growth inhibition assay (Cell Titer Glo, 3 days), summary over clones. Particulars: Homo sapiens, A375P-F11; seven Compound A resistant clones (12R8-3, 12R8-1, 12R5-3, 16R5-2, 16R6-3, 16R6-4, 12R5-1); single agent. Here is the method: as §1
All cells were cultured for a minimum of 72 hours prior to cell plating. […] ATP levels were determined by adding Cell Titer Glo® (Promega) according to the manufacturer's protocol. Briefly, Cell Titer Glo® was added each plate, incubated for 30 minutes then luminescent signal was read on the SpectraMax L plate reader with a 0.5 sec integration time.
as §3
Combination effects on potency were evaluated using Combination Index (CI) which was calculated with the back-interpolated IC50 values and the mutually non-exclusive equation derived by Chou and Talalay (1): CI=Da/IC50(a)+Db/IC50(b)+(Da×Db)/(IC50(a)×IC50(b)) […]

The test system of test [8] is NCI-H508. In words: Cell growth inhibition assay (Cell Titer Glo, 3 days). As to conditions: Homo sapiens, NCl-H508, colon, BRAF G596R, KRAS WT, PIK3CA E545K, mean ± std, read-out: IC50 Single Agent. Here is the method: as §1, §2
(§7) Inhibition of cell growth was estimated after treatment with compound or combination of compounds for three days and comparing the signal to cells treated with vehicle (DMSO). Cell growth was calculated relative to vehicle (DMSO) treated control wells. […]
(In general: In ATP-based viability assays light output follows the ATP content of the culture.)

Test [9] concerns RKO. The description is as above. As to conditions: Homo sapiens, colon, BRAF V600E, KRAS WT, PIK3CA H1047R, mean ± std, read-out: IC50 Single Agent. Here is the method: as §1, §2, §7
For test [10], the system named is HCT15. Described as above. Particulars: Homo sapiens, HCT-15; HCT15, colon; BRAF WT, KRAS G13D, PIK3CA D549N, E545K; mean ± std; read-out: IC50 Single Agent. Here is the method:
as §1, §2, §7

The test system of test [11] is 16R6-4. Described as above. As to conditions: Homo sapiens; 16R6-4, melanoma, Compound A resistant clone; BRAF_V600E, KRAS WT; mean ± std; read-out: IC50 Single Agent. The protocol:
as §1, §2, §7

Turning to `Cn1ncc(Cl)c1-c1cc(C(=O)N[C@H](CN)Cc2ccc(F)c(F)c2)oc1Cl` [Compound B, N-{(1S)-2-amino-1-[(3,4-difluorophenyl)methyl]ethyl}-5-chloro-4-(4-chloro-1-methyl-1H-pyrazol-5-yl)-2-furancarboxamide], the IC50 in test [1] is 7.05 ± 1.33 µM; in test [2], 1410 ± 961 nM; in test [3] it was 2590 ± 1760 nM; in test [4] it was 503 ± 73 nM; in [5], over 10 µM; in test [6], over 10 µM. The IC50 was at least 7 µM in test [7]; 234 ± 247 nM in [8]; 290 ± 70 nM in test [9]; 4.21 ± 0.834 µM in test [10]; over 10 µM in [11].

Regarding `CC(C)(C)c1nc(-c2cccc(NS(=O)(=O)c3c(F)cccc3F)c2F)c(-c2ccnc(N)n2)s1` [Compound A, N-{3-[5-(2-Amino-4-pyrimidinyl)-2-(1,1-dimethylethyl)-1,3-thiazol-4-yl]-2-fluorophenyl}-2,6-difluorobenzenesulfonamide], the IC50 is over 10 µM in test [1]; over 10000 nM in test [2]; 101 ± 31 nM in test [3]; 28 ± 7 nM in test [4]; over 10 µM in test [5]; over 10 µM in test [6]. For the same compound, the IC50 in test [8] is over 10000 nM; in test [9] it was 3140 ± 3470 nM; in test [10] it was over 10 µM; in test [11], over 10 µM.
